# Columns and labels:
# [1] = test system: participants with severe PTSD; assay: MAPP1 Phase 3: safety, adverse events; format: in vivo, human
# Protocol: MAPP1 was a Phase 3 randomized, placebo-controlled, 2-arm, double-blind, multi-site study conducted to investigate the efficacy and safety of MDMA-AT in participants with severe PTSD. This study is also discussed in Mitchell et. al., Nature Medicine 2021, 27, 1025-1033. This study included 3 experimental sessions of therapy combined with either MDMA·HCl or placebo. During Experimental Session 1, participants received a split dose of 120 mg (80 mg+40 mg).
# There were 2 serious TEAEs in the placebo with therapy group (1 participant with 2 events of suicide attempt [1 moderate and 1 severe] and 1 participant with 1 event of suicidal ideation [severe], Listing 14.3.2.2.3). Adverse events of special interest included a subset of AEs involving cardiac function, suicidality, and MDMA abuse. There were 3 (6.5%) participants in the MDMA-AT group and 6 (13.6%) participants in the placebo with therapy group with a TEAE of special interest. The majority of AESIs were associated with suicidality (reported by […]) and 1 participant in the placebo group reported 2 AESIs that were associated with cardiac function (palpitations and irregular heart rate). […] A total of 4 participants discontinued study treatment due to a TEAE (MDMA: 1 participant [severe TEAE of depression]; placebo: 3 participants [1 participant with 2 serious adverse events (SAEs) of suicide attempt, 1 participant with a SAE of suicidal ideation, and 1 participant with 1 severe TEAE of insomnia]. The majority of participants in the MDMA-AT group (97.8%) and the placebo with therapy group (90.9%) had at least 1 temporally related TEAE (TEAEs that occurred during an experiment session or up to 2 days following); none of these events were SAEs. A listing of all TEAEs from MDMA-AT group with ≥5% incidence and twice prevalence of placebo group is provided below in Table 37. Table 37.
# healthy individuals = assay: Study MPKF: ECG / QTcF; format: in vivo, human
# From the text: Specifically, there was no change in mean QTcF over time above 10 ms at any timepoint.
# OCT2 = OCT2 (Homo sapiens, UniProt O15244); assay: Transporter inhibition, OCT2; conditions: at supratherapeutic concentrations
# Chain of OCT2 (O15244 whole entry): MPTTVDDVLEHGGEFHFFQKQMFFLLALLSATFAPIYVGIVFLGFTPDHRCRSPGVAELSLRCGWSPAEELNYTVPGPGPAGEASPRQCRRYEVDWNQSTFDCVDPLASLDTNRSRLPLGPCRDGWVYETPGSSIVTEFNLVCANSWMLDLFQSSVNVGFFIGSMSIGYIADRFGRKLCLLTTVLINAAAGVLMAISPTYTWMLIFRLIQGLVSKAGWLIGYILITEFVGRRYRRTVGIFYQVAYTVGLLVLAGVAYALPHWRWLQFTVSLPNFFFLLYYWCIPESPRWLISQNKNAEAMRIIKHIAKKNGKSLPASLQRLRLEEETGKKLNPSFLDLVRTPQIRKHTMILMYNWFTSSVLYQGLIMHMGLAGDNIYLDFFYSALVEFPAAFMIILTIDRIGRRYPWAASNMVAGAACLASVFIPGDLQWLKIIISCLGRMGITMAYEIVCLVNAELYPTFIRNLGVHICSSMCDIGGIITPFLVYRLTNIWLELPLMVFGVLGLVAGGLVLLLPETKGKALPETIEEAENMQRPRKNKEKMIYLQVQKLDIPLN
# [2] = fasted group, 12-hour timepoint
smiles,measurement,setting,value
"CNC(C)Cc1ccc2c(c1)OCO2 (stereo not drawn) [MDMA, 3,4-methylenedioxymethamphetamine]",AESIs of MDMA abuse,[1]; MAPP1,no AESIs of MDMA abuse
same,"TEAE Blood pressure increased, %",[1]; MAPP1,(10.9) %
same,"TEAE Bruxism, %",[1]; MAPP1,(13.0) %
same,"TEAE Chills, %",[1]; MAPP1,(6.5) %
same,"TEAE Decreased appetite, %",[1]; MAPP1,(52.2) %
same,"TEAE Dizziness postural, %",[1]; MAPP1,(13.0) %
same,"TEAE Dry mouth, %",[1]; MAPP1,(10.9) %
same,"TEAE Feeling cold, %",[1]; MAPP1,(19.6) %
same,"TEAE Feeling jittery, %",[1]; MAPP1,(10.9) %
same,"TEAE Hyperhidrosis, %",[1]; MAPP1,(21.7) %
same,"TEAE Intrusive thoughts, %",[1]; MAPP1,(8.7) %
same,"TEAE Micturition urgency, %",[1]; MAPP1,(6.5) %
same,"TEAE Muscle tightness, %",[1]; MAPP1,(60.9) %
same,"TEAE Muscle twitching, %",[1]; MAPP1,(6.5) %
same,"TEAE Musculoskeletal pain, %",[1]; MAPP1,(8.7) %
same,"TEAE Mydriasis, %",[1]; MAPP1,(15.2) %
same,"TEAE Nausea, %",[1]; MAPP1,(30.4) %
same,"TEAE Nervousness, %",[1]; MAPP1,(6.5) %
same,"TEAE Non-cardiac chest pain, %",[1]; MAPP1,(8.7) %
same,"TEAE Nystagmus, %",[1]; MAPP1,(13.0) %
same,"TEAE Pain, %",[1]; MAPP1,(8.7) %
same,"TEAE Pollakiuria, %",[1]; MAPP1,(8.7) %
same,"TEAE Pyrexia, %",[1]; MAPP1,(6.5) %
same,"TEAE Restlessness, %",[1]; MAPP1,(15.2) %
same,"TEAE Somnolence, %",[1]; MAPP1,(6.5) %
same,"TEAE Stress, %",[1]; MAPP1,(8.7) %
same,"TEAE Substance use, %",[1]; MAPP1,(6.5) %
same,"TEAE Vision blurred, %",[1]; MAPP1,(8.7) %
same,"TEAE Vomiting, %",[1]; MAPP1,(8.7) %
same,participants with a TEAE of special interest,[1]; MAPP1,6.5%
same,"At least one Serious TEAE Leading to Death, %","[1]; MAPP1, Safety Set",(0.0) %
same,"At least one Serious TEAE, %","[1]; MAPP1, Safety Set",(0.0) %
same,"At least one TEAE of Special Interest, %","[1]; MAPP1, Safety Set",(6.5) %
same,"Discontinued study treatment due to any TEAE(s), %","[1]; MAPP1, Safety Set",(2.2) %
same,"Participants with at least 1 TEAE during Experimental Sessions and 2 Days Following, %","[1]; MAPP1, Safety Set",(97.8) %
same,"Subjects with at least 1 Severe TEAE, %","[1]; MAPP1, Safety Set",(8.7) %
same,"Subjects with at least 1 TEAE, %","[1]; MAPP1, Safety Set",(100.0) %
same,heart rate and blood pressure during experimental sessions,"[1]; MAPP1, dose-dependent, no clinical intervention required",transient increases
same,participants with at least 1 temporally related TEAE,"[1]; MAPP1, during an experiment session or up to 2 days following",97.8%
same,change in mean QTcF over time,healthy individuals; any timepoint,≤ 10 ms
same,participants with mean QTcF increase from baseline above 30 ms,healthy individuals; [2],6.3%
same,"participants with mean QTcF increase from baseline above 30 ms, n",healthy individuals; [2],1 participant
same,impact on ECG parameters,healthy individuals; in vivo,no significant impact
same,QTcF intervals,"healthy individuals; no participant above, any group",≤ 450 ms
same,inhibition of OCT2,OCT2,inhibits

# Reference: US20250134855A1, “CO[…] AND METHODS OF USING SAME” (LYKOS THERAPEUTICS, INC., priority 2022, published 2025)
